Results taken from US9273092B2, “Selective binding compounds” (RIOGIN Corporation, priority 2011, dated 2016).

Target: hSA (Homo sapiens, UniProt P02768)
Assay: hSA binding assay (hSA-coated microtiter plate, streptavidin-polyHRP/ABTS, OD 405 nm)
Details: for Bmax: given only for compounds with an Exp 2 value
Protocol: hSA binding assay. Microtiter 96 well plate is coated, overnight at 4° C., using […] of a solution of hSA in PBS ([…]). Plate is washed with PBS and blocked, for 1 hours, using 150 ml, per well, of a 10% solution of Tween 20 in water. After 1 hour the wells are washed with PBS. The hSA binders tested are dissolved in PBS, 100 ml of the tested solutions are then added in the well and incubated for 2 hours. After 2 hours, the solution are discarded and the wells are washed using PBS, 0.1% Tween 20. 100 ml of a solution of streptavidin-polyHRP in PBS 1.375% casein is added to the wells and incubated for 1 more hours. Finally wells are washed with PBS, 0.1% Tween 20, and 100 ml ABTS in phosphate-citrate buffer with sodium perborate is added. After a few minutes OD are read at 405 nm.
A plurality of compounds according to the invention were prepared. All of the compounds contained the Cys-Pro-Cys moiety. These compounds and an assay control were tested using the above procedure. Some compounds were tested twice (Exp 1 and Exp 2).

Sequence of hSA (P02768 25-609): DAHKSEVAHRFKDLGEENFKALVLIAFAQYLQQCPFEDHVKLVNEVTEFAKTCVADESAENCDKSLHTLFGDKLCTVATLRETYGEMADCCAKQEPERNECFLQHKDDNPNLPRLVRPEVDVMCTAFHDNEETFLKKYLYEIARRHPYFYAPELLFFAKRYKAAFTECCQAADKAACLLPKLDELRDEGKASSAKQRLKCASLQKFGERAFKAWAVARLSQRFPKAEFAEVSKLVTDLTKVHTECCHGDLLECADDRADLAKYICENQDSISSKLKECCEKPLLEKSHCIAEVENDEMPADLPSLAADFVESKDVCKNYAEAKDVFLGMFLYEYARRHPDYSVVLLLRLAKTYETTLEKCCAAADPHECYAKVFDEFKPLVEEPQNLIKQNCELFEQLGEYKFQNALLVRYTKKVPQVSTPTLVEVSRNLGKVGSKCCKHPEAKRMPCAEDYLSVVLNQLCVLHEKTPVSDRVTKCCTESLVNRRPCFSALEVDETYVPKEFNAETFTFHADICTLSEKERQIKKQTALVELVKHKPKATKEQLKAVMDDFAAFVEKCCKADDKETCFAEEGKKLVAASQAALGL

Row | Binding, Exp 1 | Binding, Exp 2 | Bmax | Sequence
1 | 0.2855 | 0.3359 | 1.14 | RLIEDICPCLW [Compound 50, RLIEDI-LW, "-" represents cysteine-proline-cysteine]
2 | 1.193 |  |  | RLIEDICPCQW [Compound 60, RLIEDI-QW, "-" represents cysteine-proline-cysteine]
3 | 0.1126 |  |  | RLIEDICPCTW [Compound 32, RLIEDI-TW, "-" represents cysteine-proline-cysteine]
4 | 0.3108 |  |  | RLIEDICPCVW [Compound 52, RLIEDI-VW, "-" represents cysteine-proline-cysteine]
5 | 0.06092 |  |  | RLIEDQCPCLW [Compound 16, RLIEDQ-LW, "-" represents cysteine-proline-cysteine]
6 | 0.08956 |  |  | RLIEDTCPCLW [Compound 27, RLIEDT-LW, "-" represents cysteine-proline-cysteine]
7 | 0.3336 |  |  | RLIEDVCPCLW [Compound 54, RLIEDV-LW, "-" represents cysteine-proline-cysteine]
8 | 0.7026 |  |  | RLIEEICPCLW [Compound 57, RLIEEI-LW, "-" represents cysteine-proline-cysteine]
9 | 0.05331 |  |  | RLIENICPCLW [Compound 14, RLIENI-LW, "-" represents cysteine-proline-cysteine]
10 | 1.238 |  |  | RLIESICPCLW [Compound 61, RLIESI-LW, "-" represents cysteine-proline-cysteine]
11 | 0.1503 |  |  | RLIEVICPCLW [Compound 37, RLIEVI-LW, "-" represents cysteine-proline-cysteine]
12 | 0.1404 |  |  | RLIKDICPCLW [Compound 36, RLIKDI-LW, "-" represents cysteine-proline-cysteine]
13 | 0.06261 |  |  | RLIQDICPCLW [Compound 18, RLIQDI-LW, "-" represents cysteine-proline-cysteine]
14 |  | 0.1909 | 0.8584 | RLIQICPCLW [Compound 97, RLIQI-LW, "-" represents cysteine-proline-cysteine]
15 |  | 0.2247 | 1.301 | RLISDICPCLW [Compound 98, RLISDI-LW, "-" represents cysteine-proline-cysteine]
16 | 0.04895 | 0.2036 | 1.002 | RLIVDICPCLW [Compound 12, RLIVDI-LW, "-" represents cysteine-proline-cysteine]
17 | 0.03902 |  |  | RLTEDICPCLW [Compound 7, RLTEDI-LW, "-" represents cysteine-proline-cysteine]
18 | 0.06407 |  |  | RLVEDICPCLW [Compound 20, RLVEDI-LW, "-" represents cysteine-proline-cysteine]
19 | 0.02306 | 0.2243 | 1.232 | RQIEDICPCLW [Compound 2, RQIEDI-LW, "-" represents cysteine-proline-cysteine]
20 |  | 0.1598 | 0.6151 | RTIEDICPCLW [Compound 99, RTIEDI-LW, "-" represents cysteine-proline-cysteine]
21 | 0.06391 | 0.2112 | 1.089 | RVIEDICPCLW [Compound 19, RVIEDI-LW, "-" represents cysteine-proline-cysteine]
